Test results from patent publication US20150087723A1, “MICROBIAL COMPOSITION” (Rohm and Haas Company, priority 2011, published 2015).

Assays:
Format in all cases: cell-based
[1] = tested on: Escherichia coli (E. coli—ATCC #10536); assay: Automated assessment of efficacy in model surfactant base (2.85% sodium cocoyl glycinate + 1.85% sodium lauroamphoacetate, pH 10), 15 seconds exposure, OD450/OD590 readout; conditions: for MBC: Escherichia coli, ATCC10536, 15 s, in 2.85% sodium cocoyl glycinate + 1.85% sodium lauroamphoacetate solution at pH 10, E. coli, read-out: MBC (% w/v); for No. of replicates showing growth (out of 4) / Δ OD 450 nm = OD450 (time = 16 hours) - OD450 (time zero), Mean / Δ OD 590 nm OD590 (time = 16 hours) - OD590 (time zero), Mean: model surfactant solution
Description: Solutions were prepared such that the concentrations of the surfactant components and test actives were 1.1×x the final desired concentration in order to allow for dilution with the bacterial inoculum in the test. The solutions were manually adjusted to pH 10.0 by drop wise addition of sodium hydroxide solution, as measured with a phi meter at ambient temperature.
Tests were conducted using standard microtiter plate assays using an automated liquid handling system, 270 μl of the surfactant test solution was pipetted into each well of the microtitre plate and 30 μl of the bacterial suspension was then added. After exactly 15 seconds of bacterial exposure, a 30 μl volume of bacterial cells was withdrawn and transferred to 270 μl of D/E quench solution. After 5 minutes in the D/E quench, the optical density (OD) was measured for each plate in turn at two specific wavelengths (450 nm and 590 nm). These provide a dual check of antimicrobial activity, as the OD450 reading is specific for the yellow colour of D/E quench when bacterial growth is observed, whereas OD590 is specific for the initial purple colour of the D/E quench which is retained if no bacterial growth is observed. After the time zero OD measurements, plates were then incubated at 37° C. overnight (16 hours) before repeating the OD measurements. Delta OD values were calculated by subtracting […] the initial value at time zero. Bacterial growth is observed as an increase in OD450 and a decrease in ΔOD590. To identify antibacterially efficacious systems (those preventing appreciable bacterial growth after incubation), the following threshold changes in OD readings have been adopted: if (1), OD450 increases by less than 0.2 absorbance unit on incubation and (2). OD590 decreases by less than 0.35 unit on incubation. Conversely, where OD450 increases by more than 0.2 AU and OD590 decreases by more than 0.35 unit after incubation, corresponding to a colour shift from purple to yellow, the test system allows bacterial growth and is not deemed efficacious. Four replicate measurements in the same plate have been made for each test system. The number of replicate wells showing either bacterial growth or no growth is also readily assessed by eye by following the colour change.
Dose responses for individual components and binary mixtures of actives at a used concentration ratio were generated by sequential dilution of liquors with further surfactant solution to obtain a series of endpoints.
In some selected cases, the combinations were also tested at the weight ratio 1:1.

[2] = tested on: Staphylococcus aureus (10788 strain); assay: Antimicrobial efficacy in water, 15 seconds contact, mean bacterial survival NMBS by colony count
[3] = tested on: Escherichia coli (10536 strain); assay: as above
Description: An overnight culture of Escherichia coli (10536 strain) was prepared in 50 ml total volume of TSB broth, grown for ca. 18 hrs at 37° C. and shaken at 150 rpm. 1 ml of this overnight E. coli culture was transferred to 50 ml of fresh TSB broth and incubated at 37° C. at 150 rpm for ca. 4 hours. […] This bacterial stock was used for assaying against antimicrobial actives (in triplicate).
The following assay describes the testing of 8 materials using 6 dilutions across half of a 96-well micro litre plate (MTP). Using this approach it is possible to assay 16 actives (without replicates) with, one full dilution plate, replicating this set up in two halves of the plate columns, 1-6 and 7-12.
IM solutions of the test actives were prepared in dimethylsulphoxide (DMSO).
Aliquots (270 μl) of the materials at 1.11 times the final concentration were dispensed into the wells of the MTP along one column (A1-H1). This MTP was labeled as the “Screening plate”.
In another MTP, labeled as the “Dilution plate”, 270 μl of D/E neutralising solution from DIFCO Composition was added to column 1. The composition of the neutralising solution was as follows: pancreatic digest of casein, 5.0 g/L; Yeast Extract, 2.5 g/L; Dextrose, 10 g/L, sodium thioglycollate, 1.0 g/L, sodium thiosulphate, 6.0 g/L; sodium bisulphite, 2.5 g/L; Polysorbate 80, 5.0 g/L; lecithin 7.0 g/L; bromocresol purple, 0.02 g/L with a pH is the range 7.6±0.2.
270 μl of tryptone diluent solution was added to all the remaining wells of the Dilution MTP (columns 2-6).
Bacterial stock (30 μl) was then added to the prepared 270 μl of the solution of actives in the Screening Plate and mixed, using a multichannel pipette with 8 tips to aspirate and dispense the same volume of bacterial stock in parallel to 8 wells in rows A-H. After a contact time of 15 seconds, the mixtures were quenched by transferring 30 μl volumes of the mixtures into the 270 μl D/E neutralising solution in the prepared dilution plate, using aspiration to mix. After exactly 5 minutes in the D/E neutralising solution, 30 μl volumes were transferred from column 1 to column 2 of the Dilution MTP and mixed, before transferring further 30 μl volumes from column 2 into column 3. This process was repeated serially diluting the bacteria across the plate to column 6.
30 μl volumes from each well in the Dilution MTP were transferred onto pre-labeled segment of Tryptone Soya Agar (TSA) plates starting from the lowest bacterial concentration (highest dilution, column 6) to the highest bacterial concentration (column 1). The TSA plates were allowed to stand for ca. 2 hours so that the 30 μl inocula spots could dry and the plates were then inverted and incubated overnight at 37° C. before enumerating the bacterial colonies at the labeled dilutions to determine the effects of the actives on bacterial growth.
Mean bacterial survival numbers NMBS (expressed in Log CFU/ml) are obtained by first determining the segment of the TSA plate where the number of bacterial colonies is countable. From the colony number in this segment, NMBS is calculated by the formula: […]
Here, Ncol is the colony count, and DF is the dilution factor taken from the MTP-well corresponding to the TSA plate segment (i.e. DF may range from 1 for the quench, to 6 for the highest dilution).

**Q.** Which results are given for `CCCc1ccccc1O` [2-n-propylphenol]?
**A.** MBC [1]: 1750 µg/mL; No. of replicates showing growth (out of 4) ([1]; component alone at 0.125% w/v): 4 out of 4; Δ OD 450 nm = OD450 (time = 16 hours) - OD450 (time zero), Mean ([1]; component alone at 0.125% w/v): −1.34; Δ OD 590 nm OD590 (time = 16 hours) - OD590 (time zero), Mean ([1]; component alone at 0.125% w/v): 0.54; No. of replicates showing growth (out of 4) ([1]; component alone at 0.175% w/v): 0 out of 4; Δ OD 450 nm = OD450 (time = 16 hours) - OD450 (time zero), Mean ([1]; component alone at 0.175% w/v): −0.10; Δ OD 590 nm OD590 (time = 16 hours) - OD590 (time zero), Mean ([1]; component alone at 0.175% w/v): 0.09; No. of replicates showing growth (out of 4) ([1]; component alone at […] w/v): 4 out of 4; Δ OD 450 nm = OD450 (time = 16 hours) - OD450 (time zero), Mean ([1]; component alone at […] w/v): −1.43; Δ OD 590 nm OD590 (time = 16 hours) - OD590 (time zero), Mean ([1]; component alone at […] w/v): 0.44

**Q.** `CC(C)=CCC/C(C)=C/CO` [(E)-3,7-dimethylocta-2,6-dien-1-ol] was tested. Which “Log reduction S. aureus ATCC 6538” value ([2]; component alone at 0.1% w/v) did it give?
**A.** −0.12

**Q.** What about the “Log reduction S. aureus ATCC 6538” value ([2]; component alone at […] w/v) of the same compound?
**A.** −0.06

**Q.** What about the MBC [1] of the same compound?
**A.** > 5000 µg/mL

**Q.** What about the “No. of replicates showing growth (out of 4)” value ([1]; component alone at 0.2% w/v) of the same compound?
**A.** 4 out of 4

**Q.** And the “Δ OD 450 nm = OD450 (time = 16 hours) - OD450 (time zero), Mean” value (“Δ OD 450 nm = OD450 (time = 16 hours)” below) ([1]; component alone at 0.2% w/v)?
**A.** −0.54

**Q.** And the “Δ OD 590 nm OD590 (time = 16 hours) - OD590 (time zero), Mean” value (shortened to “Δ OD 590 nm OD590 (time = 16 hours)”) ([1]; component alone at 0.2% w/v)?
**A.** 0.60

**Q.** What about the “No. of replicates showing growth (out of 4)” value ([1]; component alone at 0.3% w/v) of the same compound?
**A.** 4 out of 4

**Q.** And the “Δ OD 450 nm = OD450 (time = 16 hours)” value ([1]; component alone at 0.3% w/v)?
**A.** −0.51

**Q.** And the “Δ OD 590 nm OD590 (time = 16 hours)” value ([1]; component alone at 0.3% w/v)?
**A.** 0.59

**Q.** And the “No. of replicates showing growth (out of 4)” value ([1]; component alone at 0.4% w/v)?
**A.** 4 out of 4

**Q.** And the “Δ OD 450 nm = OD450 (time = 16 hours)” value ([1]; component alone at 0.4% w/v)?
**A.** −0.49

**Q.** What about the “Δ OD 590 nm OD590 (time = 16 hours)” value ([1]; component alone at 0.4% w/v) of the same compound?
**A.** 0.60

**Q.** And the “No. of replicates showing growth (out of 4)” value ([1]; component alone at 0.5% w/v)?
**A.** 4 out of 4

**Q.** What about the “Δ OD 450 nm = OD450 (time = 16 hours)” value ([1]; component alone at 0.5% w/v) of the same compound?
**A.** −0.45

**Q.** What about the “Δ OD 590 nm OD590 (time = 16 hours)” value ([1]; component alone at 0.5% w/v) of the same compound?
**A.** 0.62

**Q.** And the “No. of replicates showing growth (out of 4)” value ([1]; component alone at […] w/v)?
**A.** 4 out of 4

**Q.** And the “Δ OD 450 nm = OD450 (time = 16 hours)” value ([1]; component alone at […] w/v)?
**A.** −0.53

**Q.** And the “Δ OD 590 nm OD590 (time = 16 hours)” value ([1]; component alone at […] w/v)?
**A.** 0.58

**Q.** And the “Terpene alcohol MBC %(w/v)” value ([1]; terpene alcohol alone, model surfactant, E. Coli)?
**A.** 0.5 %(w/v)

**Q.** And the “Log reduction E. coli ATCC 10536” value ([3]; component alone at 0.1% w/v)?
**A.** 1.27

**Q.** And the “Log reduction E. coli ATCC 10536” value ([3]; component alone at […] w/v)?
**A.** 1.94
